Results as given in ChEMBL document CHEMBL1153251, “Biaryl piperidines as potent and selective delta opioid receptor ligands” (Bioorg Med Chem Lett, 2010).

Assays:
[1] = molecular target: T1, Delta-type opioid receptor (Homo sapiens, UniProt P41143); assay: Displacement of [3H]diprenorphine from human delta opioid receptor expressed in CHO cells by liquid scintillation counting
Mu-type opioid receptor = Mu-type opioid receptor (Homo sapiens, UniProt P35372); assay: Displacement of [3H]diprenorphine from human mu opioid receptor expressed in CHO cells by liquid scintillation counting
[2] = molecular target: T1, Delta-type opioid receptor; assay: Antagonist activity at delta opioid receptor by GTPgammaS bunding assay; format: functional
[3] = (§1) Clearance in human liver microsomes; format: ADME, Microsome; conditions: liver microsomes
[4] = molecular target: Kappa-type opioid receptor (Homo sapiens, UniProt P41145); assay: Displacement of [3H]diprenorphine from human kappa opioid receptor expressed in CHO cells by liquid scintillation counting
Liver microsomes = assay: as §1; format: ADME, Microsome; conditions: microsomes

T1 sequence (P41143 whole entry): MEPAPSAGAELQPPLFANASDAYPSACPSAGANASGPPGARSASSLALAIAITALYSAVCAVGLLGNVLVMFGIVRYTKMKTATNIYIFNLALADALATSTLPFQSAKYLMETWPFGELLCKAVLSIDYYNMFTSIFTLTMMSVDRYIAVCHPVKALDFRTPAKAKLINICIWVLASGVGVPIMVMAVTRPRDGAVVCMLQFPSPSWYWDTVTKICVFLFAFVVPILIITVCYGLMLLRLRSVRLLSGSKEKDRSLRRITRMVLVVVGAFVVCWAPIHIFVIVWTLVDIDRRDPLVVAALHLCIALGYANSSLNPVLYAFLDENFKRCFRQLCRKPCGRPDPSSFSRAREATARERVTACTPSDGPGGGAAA
Sequence of Mu-type opioid receptor (P35372 whole entry): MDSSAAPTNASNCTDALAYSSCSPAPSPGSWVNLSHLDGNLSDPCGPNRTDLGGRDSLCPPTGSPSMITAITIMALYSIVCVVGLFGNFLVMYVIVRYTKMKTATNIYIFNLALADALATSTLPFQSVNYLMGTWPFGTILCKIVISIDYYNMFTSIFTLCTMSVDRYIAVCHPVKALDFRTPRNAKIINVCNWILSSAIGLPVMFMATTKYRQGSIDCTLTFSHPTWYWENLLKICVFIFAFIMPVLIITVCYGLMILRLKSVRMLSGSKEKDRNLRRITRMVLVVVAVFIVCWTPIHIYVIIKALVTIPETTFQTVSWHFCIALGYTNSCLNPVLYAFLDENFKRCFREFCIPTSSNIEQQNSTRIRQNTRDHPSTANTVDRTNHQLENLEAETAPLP
Sequence of Kappa-type opioid receptor (P41145 whole entry): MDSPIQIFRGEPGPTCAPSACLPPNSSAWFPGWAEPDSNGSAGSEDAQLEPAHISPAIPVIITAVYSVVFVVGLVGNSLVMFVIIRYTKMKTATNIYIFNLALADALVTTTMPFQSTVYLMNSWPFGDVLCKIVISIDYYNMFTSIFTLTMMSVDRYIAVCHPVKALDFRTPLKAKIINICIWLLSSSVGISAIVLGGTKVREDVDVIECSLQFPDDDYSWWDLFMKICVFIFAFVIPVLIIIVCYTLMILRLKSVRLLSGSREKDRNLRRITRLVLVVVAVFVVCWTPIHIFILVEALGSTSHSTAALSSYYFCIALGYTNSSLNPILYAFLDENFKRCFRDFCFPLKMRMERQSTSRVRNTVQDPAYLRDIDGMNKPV

Compound `CCCCN1CCCC(c2ccc(C(=O)N(CC)CC)cc2)(c2cccc(O)c2)C1` (stereo not drawn) has a Ki [1] of 6.2 nM, a Ki (Mu-type opioid receptor) greater than 890 nM and an IC50 [2] of 55 nM. It also gave a CLint scaled [3] of 113 mL/min/kg and a Ki [4] greater than 890 nM.
Compound `CCN(C)C(=O)c1ccc(C2(c3cccc(O)c3)CCCN(CC3CC3)C2)cc1` (stereo not drawn) has a Ki [1] of 2.2 nM, a Ki (Mu-type opioid receptor) of 52 nM and a CLint scaled [3] of 70 mL/min/kg. It also gave a Ki [4] of 66 nM.
In the case of `CCC(O)(CC)c1ccc(C2(c3cccc(C(N)=O)c3)CCN(CC3CC3)CC2)cc1`, the Ki [1] is reported as 2.3 nM, the Ki (Mu-type opioid receptor) is reported as greater than 890 nM and the IC50 [2] is reported as 282 nM. The CLint scaled [3] was 26.1 mL/min/kg and the Ki [4] was 79 nM.
`CCCC(C)CN1CCC(c2ccc(C(O)(CC)CC)cc2)(c2cccc(C(N)=O)c2)CC1` (stereo not drawn) showed a Ki [1] of 2 nM, a Ki (Mu-type opioid receptor) of 380 nM and an IC50 [2] of 4.7 nM. For the same compound, the CLint scaled [3] was 108 mL/min/kg and the Ki [4] was 45 nM.
`CCN(CC)C(=O)c1ccc(C2(c3cccc(C(N)=O)c3)CCCN(Cc3nccs3)C2)cc1` (stereo not drawn) showed a Ki [1] of 7 nM, a Ki (Mu-type opioid receptor) greater than 890 nM and an IC50 [2] of 12 nM. For the same compound, the CL (Liver microsomes) was “Not Active” and the Ki [4] was greater than 890 nM.
`CC(C)(O)c1ccc(C2(c3cccc(O)c3)CCCN(CC3CC3)C2)cc1` (stereo not drawn) gave a Ki [1] of 39 nM, a Ki (Mu-type opioid receptor) of 110 nM and a CLint scaled [3] of 22 mL/min/kg. For the same compound, the Ki [4] was 41 nM.
`CCN(CC)C(=O)c1ccc(C2(c3cccc(O)c3)CCN(CC3CC3)CC2)cc1` gave a Ki [1] of 9 nM, a Ki (Mu-type opioid receptor) greater than 890 nM and an IC50 [2] of 155 nM. For the same compound, the CLint scaled [3] was 62.9 mL/min/kg and the Ki [4] was 440 nM.
`CCN(CC)C(=O)c1ccc(C2(c3cccc(O)c3)CCN(CCc3ccccc3)CC2)cc1` gave a Ki [1] of 0.9 nM, a Ki (Mu-type opioid receptor) of 66.5 nM and a CLint scaled [3] of 239 mL/min/kg. For the same compound, the Ki [4] was 95 nM.
In the case of `CCCC(C)CN1CCC(c2ccc(C(=O)N(CC)CC)cc2)(c2cccc(O)c2)CC1` (stereo not drawn), the Ki [1] is reported as 1.8 nM, the Ki (Mu-type opioid receptor) is reported as greater than 890 nM and the CL (Liver microsomes) is reported as “Not Active”. For the same compound, the Ki [4] was greater than 890 nM.
Compound `CCN(CC)C(=O)c1ccc(C2(c3cccc(O)c3)CCCN(CC(F)(F)F)C2)cc1` (stereo not drawn) has a Ki [1] of 2.9 nM, a Ki (Mu-type opioid receptor) greater than 890 nM and a CLint scaled [3] greater than 300 mL/min/kg. The Ki [4] was 24 nM.
`CCCC(C)CN1CCC(c2ccc(C(=O)N(C)C)cc2)(c2cccc(O)c2)CC1` (stereo not drawn) gave a Ki [1] of 11 nM, a Ki (Mu-type opioid receptor) greater than 890 nM and an IC50 [2] of 72 nM. For the same compound, the CLint scaled [3] was 80 mL/min/kg and the Ki [4] was 150 nM.
With `CCN(CC)C(=O)c1ccc(C2(c3cccc(O)c3)CCCN(CC3CC3)C2)cc1` (stereo not drawn) the Ki [1] was 0.8 nM, the Ki (Mu-type opioid receptor) was 35 nM and the IC50 [2] was 7.1 nM. The CLint scaled [3] was 89 mL/min/kg and the Ki [4] was 24 nM.
`CCN(CC)C(=O)c1ccc(C2(c3cccc(O)c3)CCCN(Cc3nccs3)C2)cc1` (stereo not drawn) gave a Ki [1] of 3.5 nM, a Ki (Mu-type opioid receptor) greater than 890 nM and an IC50 [2] of 16 nM. For the same compound, the CLint scaled [3] was greater than 300 mL/min/kg and the Ki [4] was 163 nM.
`CCN(CC)C(=O)c1ccc(C2(c3cccc(O)c3)CCCN(Cc3ncc[nH]3)C2)cc1` (stereo not drawn) showed a Ki [1] of 1.2 nM, a Ki (Mu-type opioid receptor) greater than 890 nM and a CLint scaled [3] of 230 mL/min/kg. It also gave a Ki [4] greater than 890 nM.
Work on `C=CCN1CCC(c2ccc(C(=O)N(CC)CC)cc2)(c2cccc(O)c2)CC1` yielded a Ki [1] of 1.9 nM, a Ki (Mu-type opioid receptor) greater than 890 nM and a CLint scaled [3] of 34.6 mL/min/kg. For the same compound, the Ki [4] was 347 nM.
